“And” between values parts separate entries of the source, which are not always exact repeats. Equal entries are not always repeated. ± gives the expanded uncertainty stated by the source.
For `O=C(C(F)(F)C(F)(F)F)C(F)(C(F)(F)F)C(F)(F)F` [dodecafluoro-2-methylpentan-3-one], the thermal conductivity (389.64 K, 670 kPa, Liquid, transient hot wire) was 0.04285 ± 0.0009 W/m/K, the thermal conductivity (389.64 K, 9501 kPa, Liquid, transient hot wire) was 0.04974 ± 0.001 W/m/K and the thermal conductivity (389.64 K, 9504 kPa, Liquid, transient hot wire) was 0.04979 ± 0.001 W/m/K. It also gave a thermal conductivity (389.65 K, 670 kPa, Liquid, transient hot wire) of 0.04282 ± 0.0009 W/m/K, a thermal conductivity (389.65 K, 53766 kPa, Liquid, transient hot wire) of 0.06802 ± 0.0014 W/m/K and a thermal conductivity (389.66 K, 53751 kPa, Liquid, transient hot wire) of 0.06802 ± 0.0014 W/m/K. For the same compound, the thermal conductivity (389.7 K, 21438 kPa, Liquid, transient hot wire) was 0.05608 ± 0.0012 W/m/K, the thermal conductivity (389.7 K, 21439 kPa, Liquid, transient hot wire) was 0.05607 ± 0.0012 W/m/K and the thermal conductivity (389.72 K, 40368 kPa, Liquid, transient hot wire) was 0.0636 ± 0.0013 W/m/K. It also gave a thermal conductivity (389.72 K, 67805 kPa, Liquid, transient hot wire) of 0.07218 ± 0.0015 W/m/K, a thermal conductivity (389.72 K, 67826 kPa, Liquid, transient hot wire) of 0.07217 ± 0.0015 W/m/K and a thermal conductivity (389.73 K, 40356 kPa, Liquid, transient hot wire) of 0.06359 ± 0.0013 W/m/K. It also gave a thermal conductivity (389.74 K, 5608 kPa, Liquid, transient hot wire) of 0.04712 ± 0.00098 W/m/K, a thermal conductivity (389.75 K, 14721 kPa, Liquid, transient hot wire) of 0.0528 ± 0.0011 W/m/K and a thermal conductivity (389.76 K, 2811 kPa, Liquid, transient hot wire) of 0.04489 ± 0.00094 W/m/K. It also gave a thermal conductivity (389.76 K, 14719 kPa, Liquid, transient hot wire) of 0.05276 ± 0.0011 W/m/K, a thermal conductivity (389.77 K, 2810 kPa, Liquid, transient hot wire) of 0.04491 ± 0.00094 W/m/K and a thermal conductivity (389.79 K, 29871 kPa, Liquid, transient hot wire) of 0.0597 ± 0.0012 W/m/K. It also gave a thermal conductivity (389.8 K, 29864 kPa, Liquid, transient hot wire) of 0.05959 ± 0.0012 W/m/K, a thermal conductivity (389.8 K, 53730 kPa, Liquid, transient hot wire) of 0.06799 ± 0.0014 W/m/K and a thermal conductivity (389.81 K, 53715 kPa, Liquid, transient hot wire) of 0.06798 ± 0.0014 W/m/K. For the same compound, the thermal conductivity (389.83 K, 9502 kPa, Liquid, transient hot wire) was 0.0497 ± 0.001 W/m/K, the thermal conductivity (389.83 K, 9503 kPa, Liquid, transient hot wire) was 0.04976 ± 0.001 W/m/K and the thermal conductivity (389.84 K, 669 kPa, Liquid, transient hot wire) was 0.04282 ± 0.0009 W/m/K and 0.04287 ± 0.0009 W/m/K. The thermal conductivity (389.85 K, 670 kPa, Liquid, transient hot wire) was 0.0428 ± 0.0009 W/m/K and 0.04285 ± 0.0009 W/m/K, the thermal conductivity (389.87 K, 21435 kPa, Liquid, transient hot wire) was 0.05603 ± 0.0012 W/m/K and the thermal conductivity (389.87 K, 67783 kPa, Liquid, transient hot wire) was 0.07218 ± 0.0015 W/m/K. For the same compound, the thermal conductivity (389.88 K, 40337 kPa, Liquid, transient hot wire) was 0.06356 ± 0.0013 W/m/K, the thermal conductivity (389.88 K, 40347 kPa, Liquid, transient hot wire) was 0.06347 ± 0.0013 W/m/K and the thermal conductivity (389.88 K, 67759 kPa, Liquid, transient hot wire) was 0.07209 ± 0.0015 W/m/K. For the same compound, the thermal conductivity (389.94 K, 5610 kPa, Liquid, transient hot wire) was 0.04715 ± 0.00098 W/m/K, the thermal conductivity (389.95 K, 5610 kPa, Liquid, transient hot wire) was 0.04716 ± 0.00098 W/m/K and the thermal conductivity (389.95 K, 14717 kPa, Liquid, transient hot wire) was 0.05274 ± 0.0011 W/m/K. It also gave a thermal conductivity (389.96 K, 2811 kPa, Liquid, transient hot wire) of 0.04493 ± 0.00094 W/m/K, a thermal conductivity (389.96 K, 14717 kPa, Liquid, transient hot wire) of 0.05275 ± 0.0011 W/m/K and a thermal conductivity (389.97 K, 2812 kPa, Liquid, transient hot wire) of 0.04492 ± 0.00094 W/m/K. It also gave a thermal conductivity (389.97 K, 29861 kPa, Liquid, transient hot wire) of 0.05954 ± 0.0012 W/m/K, a thermal conductivity (389.97 K, 29862 kPa, Liquid, transient hot wire) of 0.05955 ± 0.0012 W/m/K and a thermal conductivity (389.97 K, 53688 kPa, Liquid, transient hot wire) of 0.06792 ± 0.0014 W/m/K. It also gave a thermal conductivity (389.97 K, 53707 kPa, Liquid, transient hot wire) of 0.06846 ± 0.0014 W/m/K, a thermal conductivity (390.03 K, 9500 kPa, Liquid, transient hot wire) of 0.04976 ± 0.001 W/m/K and a thermal conductivity (390.03 K, 9503 kPa, Liquid, transient hot wire) of 0.04976 ± 0.001 W/m/K. The thermal conductivity (390.06 K, 669 kPa, Liquid, transient hot wire) was 0.0428 ± 0.0009 W/m/K, the thermal conductivity (390.06 K, 670 kPa, Liquid, transient hot wire) was 0.04284 ± 0.0009 W/m/K and 0.04279 ± 0.0009 W/m/K and the thermal conductivity (390.06 K, 21434 kPa, Liquid, transient hot wire) was 0.05598 ± 0.0012 W/m/K. The thermal conductivity (390.06 K, 21436 kPa, Liquid, transient hot wire) was 0.056 ± 0.0012 W/m/K, the thermal conductivity (390.06 K, 40331 kPa, Liquid, transient hot wire) was 0.0635 ± 0.0013 W/m/K and the thermal conductivity (390.06 K, 40336 kPa, Liquid, transient hot wire) was 0.06349 ± 0.0013 W/m/K. For the same compound, the thermal conductivity (390.15 K, 5609 kPa, Liquid, transient hot wire) was 0.04709 ± 0.00098 W/m/K and 0.04706 ± 0.00098 W/m/K, the thermal conductivity (390.15 K, 14714 kPa, Liquid, transient hot wire) was 0.05264 ± 0.0011 W/m/K and the thermal conductivity (390.15 K, 29850 kPa, Liquid, transient hot wire) was 0.0595 ± 0.0012 W/m/K. The thermal conductivity (390.16 K, 14712 kPa, Liquid, transient hot wire) was 0.05268 ± 0.0011 W/m/K, the thermal conductivity (390.16 K, 29857 kPa, Liquid, transient hot wire) was 0.0595 ± 0.0012 W/m/K and the thermal conductivity (390.18 K, 2812 kPa, Liquid, transient hot wire) was 0.04486 ± 0.00094 W/m/K. It also gave a thermal conductivity (390.19 K, 2812 kPa, Liquid, transient hot wire) of 0.04487 ± 0.00094 W/m/K, a thermal conductivity (390.24 K, 9499 kPa, Liquid, transient hot wire) of 0.04963 ± 0.001 W/m/K and a thermal conductivity (390.25 K, 9501 kPa, Liquid, transient hot wire) of 0.04969 ± 0.001 W/m/K. The thermal conductivity (390.25 K, 21437 kPa, Liquid, transient hot wire) was 0.05589 ± 0.0012 W/m/K, the thermal conductivity (390.26 K, 21435 kPa, Liquid, transient hot wire) was 0.05593 ± 0.0012 W/m/K and the thermal conductivity (390.28 K, 669 kPa, Liquid, transient hot wire) was 0.04276 ± 0.00089 W/m/K and 0.04278 ± 0.0009 W/m/K. The thermal conductivity (390.29 K, 670 kPa, Liquid, transient hot wire) was 0.04279 ± 0.0009 W/m/K and 0.04277 ± 0.00089 W/m/K, the thermal conductivity (390.36 K, 14712 kPa, Liquid, transient hot wire) was 0.05264 ± 0.0011 W/m/K and the thermal conductivity (390.36 K, 14714 kPa, Liquid, transient hot wire) was 0.05262 ± 0.0011 W/m/K. The thermal conductivity (390.37 K, 5610 kPa, Liquid, transient hot wire) was 0.04711 ± 0.00098 W/m/K, the thermal conductivity (390.37 K, 5611 kPa, Liquid, transient hot wire) was 0.04706 ± 0.00098 W/m/K and the thermal conductivity (390.42 K, 2814 kPa, Liquid, transient hot wire) was 0.04483 ± 0.00094 W/m/K. It also gave a thermal conductivity (390.42 K, 2815 kPa, Liquid, transient hot wire) of 0.04488 ± 0.00094 W/m/K, a thermal conductivity (390.46 K, 9497 kPa, Liquid, transient hot wire) of 0.04961 ± 0.001 W/m/K and a thermal conductivity (390.46 K, 9500 kPa, Liquid, transient hot wire) of 0.04968 ± 0.001 W/m/K. For the same compound, the thermal conductivity (390.52 K, 669 kPa, Liquid, transient hot wire) was 0.04282 ± 0.0009 W/m/K and 0.04283 ± 0.0009 W/m/K, the thermal conductivity (390.53 K, 670 kPa, Liquid, transient hot wire) was 0.04282 ± 0.0009 W/m/K and 0.04286 ± 0.0009 W/m/K and the thermal conductivity (390.57 K, 5608 kPa, Liquid, transient hot wire) was 0.04706 ± 0.00098 W/m/K. The thermal conductivity (390.6 K, 5609 kPa, Liquid, transient hot wire) was 0.04709 ± 0.00098 W/m/K, the thermal conductivity (390.66 K, 2816 kPa, Liquid, transient hot wire) was 0.04487 ± 0.00094 W/m/K and the thermal conductivity (390.66 K, 2817 kPa, Liquid, transient hot wire) was 0.04488 ± 0.00094 W/m/K. The thermal conductivity (390.76 K, 669 kPa, Liquid, transient hot wire) was 0.04287 ± 0.0009 W/m/K, the thermal conductivity (390.78 K, 669 kPa, Liquid, transient hot wire) was 0.04304 ± 0.0009 W/m/K and the thermal conductivity (402.21 K, 448 kPa, Gas, hot wire) was 0.02088 ± 0.00098 W/m/K. The thermal conductivity (402.23 K, 447 kPa, Gas, hot wire) was 0.02061 ± 0.00097 W/m/K, the thermal conductivity (402.27 K, 307 kPa, Gas, hot wire) was 0.02002 ± 0.00094 W/m/K and 0.01983 ± 0.00093 W/m/K and the thermal conductivity (402.31 K, 156 kPa, Gas, hot wire) was 0.01939 ± 0.00091 W/m/K. It also gave a thermal conductivity (402.31 K, 157 kPa, Gas, hot wire) of 0.01939 ± 0.00091 W/m/K, a thermal conductivity (402.33 K, 446 kPa, Gas, hot wire) of 0.02071 ± 0.00098 W/m/K and a thermal conductivity (402.34 K, 445 kPa, Gas, hot wire) of 0.02068 ± 0.00097 W/m/K.

From the NIST ThermoML archive (doi:10.1021/acs.jced.8b00132)
